Experimental data published in patent publication US10526317B2, “Benzocyanine compounds” (PIERCE BIOTECHNOLOGY, INC., priority 2012, dated 2020).
Entries after “also recorded” stand apart in the source; their conditions may differ.

Legend:
[1] = Absorption/emission profiles and spectral properties of the dyes; type: physicochemical
Procedure: The following properties of 679 Compound 1-NHS were compared with commercially available dyes.
Emission/excitation profiles for inventive and commercial compounds was determined by reconstituting the compounds in DMF at 10 mg/ml and then diluting in PBS buffer pH 7.2 to 10 μg/ml. Absorbance spectra were collected on Cary UV spectrophotometer and emission spectra were collected on Tecan Safire, shown in FIG. 1 where solid lines represent absorbance spectra and dashed lines represent emission spectra, for DyLight 680-NHS (purple), DyLight 680B-NHS (blue), 679 Compound 1-NHS (red), and Company B Compound-NHS (black). The maximum absorbance and emission for each compound is shown below.
The following properties of 679 Compound 1-NHS, 679 Compound 4/4-NHS (V08-15173), and 679 Compound 4/4-NHS (V10-04152) were compared with commercially available dyes.

[2] = tested on: CEA; parameters: species or system nu/nu mice; settings: mouse; for post-experiment surgical exposure (in words): in vivo
Procedure: The inventive compounds are used for in vivo imaging as described in J. Gastrointest Surg (2008) 12:1938-1950. Briefly, human pancreatic cell lines are maintained in media supplemented with penicillin/streptomycin at 37° C. with 5% CO2. Mouse anti-CEA antibody and Control Mouse IgG (in PBS with 0.20% sodium azide) are conjugated to V08-15173. The dye is reconstituted at 10 mg/ml in DMF and then added to the antibody at a 10 molar excess. The reaction is carried out for one hour at room temperature. The samples are then dialyzed against 3×2 L of PBS. The cell lines are plated in 96-well plates at 5×10^4 cells per well. After 48 hours culture in appropriate media, the cells are incubated with 1 μg of V08-15173 labeled anti-CEA antibody or V08-15173-labeled control mouse IgG for four hours at 37° C. The cells are then washed three times with PBS and then imaged with an inverted Nikon De-485 microscope and Spot camera RD.
Surgical procedures and intravital imaging are performed with the animals anesthesized by intramuscular injection of 0.02 ml of 50% ketamine, 38% xylazine and 12 acepromazine maleate. Human pancreatic and colorectal cancer cell lines are harvested by trypsinization and washed twice with serum free medium and washed twice with serum-free medium. Cells (1×10^6 in 100 μl of serum-free media) are injected subcutaneously within 30 minutes of harvesting over the right flank in female nu/nu mice between 4-6 weeks of age. Subcutaneous tumors are allowed to grow for 7-14 days until they reached diameter of 1-2 mm prior to the delivery of conjugated antibody. For ASPC-1 implants, the cells are harvested by trpsinization and washed 3× in serum-free media. The cells are resuspended in serum-free media. The cells are resuspended in serum-free media at 5×10^6/ml. A volume of 200 μl of the cell suspension is then injected directly into the peritoneal cavity within 30 minutes of harvesting.
For antibody delivery, one to two weeks after subcutaneous, orthotopic, or intraperitoneal tumor implantation, animals are given intravenous (i.v.) injection of either conjugated anti-CEA or conjugated control IgG antibody diluted in PBS to a final volume of 100 μl. All i.v. injections are done via the tail vein. For the dose-response experiment, the antibody dose is 75 μg. For the in vivo time course, the animals are anesthesized and imaged at 30 min, 1, 2, 6, 24 hours and 8 and 15 days after systemic antibody delivery.
The inventive compounds are used for in vivo imaging as described in J. Gastrointest Surg (2008) 12:1938-1950. Briefly, human pancreatic cell lines are maintained in media supplemented with penicillin/streptomycin at 37° C. with 5% CO2. Mouse anti-CEA antibody and Control Mouse IgG (in PBS with 0.20% sodium azide) are conjugated to 779 Compound 1. […]

[3] = tested on: lamin A; assay: Immunofluorescence detection of lamin A in U2OS cells, dye-GAM secondary (FIG. 29A-C and repeat); type: cell-based, human; settings: for Mean Total Intensity, Negative control: no primary antibody
Procedure: In the indicated experiments, the inventive compounds and commercial dye were evaluated for immunofluorescence in a cell based assay using the following protocol. Frozen U20S cell plates which were stored at −80° C. were thawed for 45 minutes at 50° C. Storage buffer (PBS) was removed and the cells were permeabilized for 15 minutes with 0.1% Triton-X100 in 1×PBS buffer (100 μl/well). The cell plate was blocked for 60 minutes in 2% BSA/PBS-0.1% Triton-X100. Primary antibody, either rat anti-Grp94 (5 μg/ml), mouse anti-lamin A (10 μg/ml), or rabbit anti-lamin B1 (10 μg/ml), diluted in 2% BSA/PBS-0.1% Triton-X100 was added to the plate and incubated for 1 hour at room temperature. Control wells contained only 2% BSA/PBS-0.1% Triton-X100 blocker. After incubation, the antibody solution was removed from the plate and the plate was washed three times with 100 μl/well of PBS-0.5% Tween-20 and one time with 100 μl/well PBS. GARat, GAM, or GAR secondary antibodies labeled with various molar excess of the inventive or commercial compound were diluted to 4 μg/ml in PBS and incubated for 1 hour at room temperature. The plates were washed three times with 100 μl/well of PBST and once with 100 μl/well PBS, and Hoechst (diluted to 0.1 μg/ml in PBS) was added to each well (100 μl/well). The plates were scanned on ArrayScan Plate Reader or ToxInsight Instrument.
Quantitative analysis of a repeat experiment of FIG. 29A-C are shown below.

[4] = Micro conjugation (labeling of ≥0.1 mg monoclonal antibody): D/P, protein recovery, free dye; settings: 15 μg dye or commercial kit, mouse MAb
Procedure: Another experiment set used inventive and commercial compounds, each as the NHS ester, in a micro conjugation (labeling of≥0.1 mg antibody). […] The antibodies were labeled and purified as described above.

[5] = second property table of Example 6
[6] = first property table of Example 6

## COCC[N+]1=C(/C=C/C=C/C=C2/N(CCCCCC(=O)O)c3ccc4c(S(=O)(=O)[O-])cc(S(=O)(=O)[O-])cc4c3C2(C)C)C(C)(CCCS(=O)(=O)[O-])c2c1ccc1c(S(=O)(=O)[O-])cc(S(=O)(=O)[O-])cc21.[Na+].[Na+].[Na+].[Na+] (single isomer, unassigned) [679 Compound 1/1 (Isomer 2), 2-{(1E,3E)-5-[3-(5-Carboxypentyl)-1,1-dimethyl-6,8-disulfo-1,3-dihydro-benzo[e]indol-(2E)-ylidene]-penta-1,3-dienyl}-3-(2-methoxy-ethyl)-1-methyl-6,8-disulfo-1-(3-sulfopropyl)-1H-benzo[e]indolium]
[1]; PBS
  λem: 698 nm

## COCCOCCOCCOCC[N+]1=C(/C=C/C=C/C=C2/N(CCOCCOCCOCCOCCC(=O)ON3C(=O)CCC3=O)c3ccc4c(S(=O)(=O)[O-])cc(S(=O)(=O)O)cc4c3C2(C)CCOCCOCCOCCOC)C(C)(CCOCCOCCOCCOC)c2c1ccc1c(S(=O)(=O)O)cc(S(=O)(=O)O)cc21 (stereo not drawn) [Compound V08-15173]
[2]
  Ex vivo analysis of the vital organs (in words): presence of dye predominantly in the liver with some signal detected in the spleen intestines and lungs
  post-experiment surgical exposure (in words): accumulation of dye in the liver, bladder, and a region of inflammation in the subcutaneous tissue
[3]; 2.5 X molar excess
  S/B: 2.9
[3]; 5.0 X molar excess
  S/B: 4.9
[3]; 7.5 X molar excess
  S/B: 6.0
[3]; 10 X molar excess
  S/B: 4.9
[3]; 15 X molar excess
  S/B: 4.6
[3]; GAM conjugate 4 μg/ml, 2.5 X molar excess
  Mean Total Intensity (Average): 17366
[3]; GAM conjugate 4 μg/ml, 5.0 X molar excess
  Mean Total Intensity (Average): 32820
[3]; GAM conjugate 4 μg/ml, 7.5 X molar excess
  Mean Total Intensity (Average): 42876
[3]; GAM conjugate 4 μg/ml, 10 X molar excess
  Mean Total Intensity (Average): 47756
[3]; GAM conjugate 4 μg/ml, 15 X molar excess
  Mean Total Intensity (Average): 49060
[3]; GAM conjugates
  non-specific binding / specificity (in words): a minimal amount of non-specific binding; also recorded: little non-specific binding
[3]; 2.5 X
  Mean Total Intensity, Negative control: 5966
[3]; 5.0 X
  Mean Total Intensity, Negative control: 6643
[3]; 7.5 X
  Mean Total Intensity, Negative control: 7100
[3]; 10 X
  Mean Total Intensity, Negative control: 9690
[3]; 15 X
  Mean Total Intensity, Negative control: 10779
[3]; repeat experiment, 2.5 X
  S/B: 9.8
  Mean Total Intensity, Negative control: 12053
[3]; repeat experiment, 2.5 X molar excess
  Mean Total Intensity (Average): 118440
[3]; repeat experiment, 5 X
  S/B: 19.4
  Mean Total Intensity, Negative control: 9441
[3]; repeat experiment, 5 X molar excess
  Mean Total Intensity (Average): 183078
[3]; repeat experiment, 10X
  S/B: 29.9
  Mean Total Intensity, Negative control: 13094
[3]; repeat experiment, 10X molar excess
  Mean Total Intensity (Average): 391473
[3]; repeat experiment, 15 X
  S/B: 12.2
  Mean Total Intensity, Negative control: 17260
[3]; repeat experiment, 15 X molar excess
  Mean Total Intensity (Average): 211270

## CF 680R-cytochrome C
[4]
  % Free Dye: 5%

## COCCOCCOCCOCC[N+]1=C(/C=C/C=C/C=C2/N(CCOCCOCCOCCOCCC(=O)ON3C(=O)CCC3=O)c3ccc4c(S(=O)(=O)[O-])cc(S(=O)(=O)O)cc4c3C2(C)CCOCCOCCOCCOC)C(C)(CCOCCOCCOCCOC)c2c1ccc1c(S(=O)(=O)O)cc(S(=O)(=O)O)cc21 (stereo not drawn) [V08-15173 NHS]
[1]; [5]
  Em (nm): 706 nm
  Ex (nm): 684 nm
[1]; theoretical
  ε (M^−1cm^−1) (theoretical): 180,000 M^−1cm^−1

## COCC[N+]1=C(/C=C/C=C/C=C2/N(CCCCCC(=O)O)c3ccc4c(S(=O)(=O)[O-])cc(S(=O)(=O)[O-])cc4c3C2(C)C)C(C)(CCCS(=O)(=O)[O-])c2c1ccc1c(S(=O)(=O)[O-])cc(S(=O)(=O)[O-])cc21.[Na+].[Na+].[Na+].[Na+] (single isomer, unassigned) [679 Compound 1/1 (Isomer 1), 2-{(1E,3E)-5-[3-(5-Carboxypentyl)-1,1-dimethyl-6,8-disulfo-1,3-dihydro-benzo[e]indol-(2E)-ylidene]-penta-1,3-dienyl}-3-(2-methoxy-ethyl)-1-methyl-6,8-disulfo-1-(3-sulfopropyl)-1H-benzo[e]indolium]
[1]; PBS
  UV-vis (PBS): λmax: 679 nm
  λem: 698 nm

## COCC[N+]1=C(/C=C/C=C/C=C/C=C2/N(CCCCCC(=O)O)c3ccc4c(S(=O)(=O)[O-])cc(S(=O)(=O)O)cc4c3C2(C)C)C(C)(CCCS(=O)(=O)O)c2c1ccc1c(S(=O)(=O)O)cc(S(=O)(=O)O)cc21 (stereo not drawn) [779 Compound 1]
[2]
  Ex vivo analysis of the vital organs (in words): presence of dye predominantly in the liver with some signal detected in the spleen intestines and lungs
  post-experiment surgical exposure (in words): accumulation of dye in the liver, bladder, and a region of inflammation in the subcutaneous tissue

## Alexa 680-PDI
[4]
  % Free Dye: 9%

## CF 680-cytochrome C
[4]
  % Free Dye: 17%

## COCC[N+]1=C(/C=C/C=C/C=C2/N(CCCCCC(=O)ON3C(=O)CCC3=O)c3ccc4c(S(=O)(=O)[O-])cc(S(=O)(=O)O)cc4c3C2(C)C)C(C)(CCCS(=O)(=O)O)c2c1ccc1c(S(=O)(=O)O)cc(S(=O)(=O)O)cc21 (stereo not drawn) [679 Compound 1-NHS]
[1]; [6]
  Em (nm): 698 nm
  Ex (nm): 679 nm
[1]; [5]
  Em (nm): 698 nm
  Ex (nm): 679 nm
[1]; theoretical
  ε (M^−1cm^−1) (theoretical): 180,000 M^−1cm^−1
  ε (M−1cm−1) (theoretical): 180,000 M−1cm−1

## Alexa 680-cytochrome C
[4]
  % Free Dye: 3%
